According to US7727995B2, “Antiherpes drug combinations” (University of Massachusetts, priority 2003, dated 2010):
Like-named read-outs stand apart in the source and are kept apart here. Marks after values point to notes of the source that are not given here.

How the values were obtained:
[1] = tested on: HSV1; settings: cited from earlier work
[2] = tested on: G strain of HSV-2; assay: Inhibition of HSV encephalitis in mice, HSV-2 infection; assay type: in vivo
Procedure: (§1) BALB/c female mice at 6 weeks of age were anesthetized, their corneas lightly scratched with a 27-gauge needle, and 3 μl of infectious virus (McKrae strain of HSV-1 or G strain of HSV-2; 5×10^5 PFU) was placed on each cornea. At the time of infection, groups of ten animals were given 0.1 ml injections i.p. of vehicle (corn oil) or test drug or drug combination (e.g., HBPG or foscarnet or both) in vehicle at indicated concentrations, and the animals were returned to their cages and allowed to recover from anesthesia. Treatment was repeated by a regimen optimal for the drug combination and dose. Animals were observed daily for 30 days, and the day of death of each animal was recorded.

[3] = tested on: HSV1; settings: cited from earlier work; remark: listed apart in the source
[4] = tested on: HSV2; settings: mice, cited from earlier work
[5] = tested on: McKrae strain of HSV-1; assay: Inhibition of HSV encephalitis in mice, HSV-1 infection; assay type: in vivo
Procedure: as §1

[6] = tested on: HSV1; settings: 150 μM; trigeminal ganglia of HSV1 latent mice on Vero cells; cited from earlier work
[7] = HSV2, 100 mg/kg ip twice daily, 5 days
[8] = HSV2, 200 mg/kg ip twice daily, 5 days
[9] = HSV2, 400 mg/kg ip twice daily, 5 days
[10] = Table 2, HSV2, 50 mg/kg ip, bid, 5 d
[11] = Table 2, HSV2, 100 mg/kg ip, bid, 5 d
[12] = HSV1, 100 mg/kg ip twice daily, 5 days, observed 30 days
[13] = HSV1, 200 mg/kg ip twice daily, 5 days
[14] = HSV1, 400 mg/kg ip twice daily, 5 days
[15] = HSV1, 25 mg/kg ip in corn oil, twice daily for five days
[16] = HSV1, 50 mg/kg ip in corn oil, twice daily for five days
[17] = Table 5, HSV1, 100 mg/kg ip in corn oil, twice daily for five days
[18] = HSV2, 1 mg/kg ip in corn oil, twice daily for five days
[19] = HSV2, 2.5 mg/kg ip in corn oil, twice daily for five days
[20] = HSV2, 5 mg/kg ip in corn oil, twice daily for five days
[21] = HSV1, 1 mg/kg ip in corn oil, twice daily for five days
[22] = HSV1, 2.5 mg/kg ip in corn oil, twice daily for five days
[23] = HSV1, 5 mg/kg ip in corn oil, twice daily for five days

Structure (SMILES): O=c1[nH]c(Nc2ccccc2)nc2c1ncn2CCCCO [HBPG, 2-phenylamino-6-oxo-9-(4-hydroxybutyl)purine]
- preventing recurrence of ocular HSV1 disease ([1]; squirrel monkey model of latent HSV1 infection): clear efficacy
- frequency of recurrent ocular HSV1 disease ([1]; squirrel monkeys): reduce the frequency
- Survivors/treated [2, 7]: 3/10
- Survivors/treated (%) [2, 7]: (30%)
- Survivors/treated [2, 8]: 10/10*
- Survivors/treated (%) [2, 8]: (100%)
- Survivors/treated [2, 9]: 9/10*
- Survivors/treated (%) [2, 9]: (90%)
- efficacy of HBPG alone ([2]; HSV2, 25 or 50 mg/kg HBPG alone): no efficacy
- Survivors/treated [2, 10]: 1/10
- Survivors/treated (%) [2, 10]: (10%)
- Survivors/treated [2, 11]: 3/10
- Survivors/treated (%) [2, 11]: (30) %
- amount of viral DNA in the relevant nerve ganglia ([3]; mice, HSV1): reduce the amount of viral DNA
- frequency of hyperthermia-induced HSV1 reactivation ([3]; mice): reduce the frequency
- preventing recurrence of ocular HSV1 disease ([3]; mouse model of latent HSV1 infection): clear efficacy
- amount of viral DNA in the relevant nerve ganglia ([4]; HSV2): reduce the amount of viral DNA
- frequency of hyperthermia-induced HSV2 reactivation [4]: reduce the frequency
- Survivors/treated [5, 12]: 1/10
- Survivors/treated [5, 13]: 6/10*
- Survivors/treated (%) [5, 13]: (60%)
- Survivors/treated [5, 14]: 9/10*
- Survivors/treated (%) [5, 14]: (90%)
- efficacy of HBPG alone ([5]; HSV1, 25 or 50 mg/kg HBPG alone): no efficacy

Structure (SMILES): O=c1[nH]c(Nc2ccccc2)nc2c1ncn2[C@H]1C[C@H](O)[C@@H](CO)O1 [PhdG, N^2-phenyl-2′-deoxyguanosine]
- number of ganglia producing virus compared to control ganglia [6]: significantly reduced

Structure (SMILES): Nc1nc2c(ncn2COCCO)c(=O)[nH]1 [acyclovir]
- Survivors/treated [5, 15]: 1/10
- Survivors/treated (%) [5, 15]: 10%
- Survivors/treated [5, 16]: 3/10
- Survivors/treated (%) [5, 16]: 30%
- Survivors/treated [5, 17]: 7/10
- Survivors/treated (%) [5, 17]: 70%

Structure (SMILES): Nc1ccn(C[C@@H](CO)OCP(=O)(O)O)c(=O)n1 [cidofovir]
- Survivors/treated [2, 18]: 0/10
- Survivors/treated (%) [2, 18]: 0%
- Survivors/treated [2, 19]: 4/10
- Survivors/treated (%) [2, 19]: 40%
- Survivors/treated [2, 20]: 10/10
- Survivors/treated (%) [2, 20]: 100%
- median effective dose ([2]; HSV2 encephalitis, ip twice daily for five days): 2.5 to 5 mg/kg
- Survivors/treated [5, 21]: 0/10
- Survivors/treated (%) [5, 21]: 0%
- Survivors/treated [5, 22]: 3/10
- Survivors/treated (%) [5, 22]: 30%
- Survivors/treated [5, 23]: 9/10
- Survivors/treated (%) [5, 23]: 90%
- median effective dose ([5]; HSV1 encephalitis, ip twice daily for five days): 2.5 to 5 mg/kg

Structure (SMILES): O=C(O)P(=O)(O)O [foscarnet, phosphonoformate]
- Survivors/treated [2, 7]: 0/10
- Survivors/treated (%) [2, 7]: (0%)
- Survivors/treated (%) [2, 8]: (40%)
- Survivors/treated (%) [2, 9]: (60%)
- Survivors/treated [2, 10]: 0/10
- Survivors/treated (%) [2, 10]: (0%)
- Survivors/treated (%) ([5]; HSV1, 100 mg/kg ip twice daily, 5 days): (10%)
- Survivors/treated [5, 12]: 1/10
- Survivors/treated (%) [5, 13]: (50%)
- Survivors/treated (%) [5, 14]: (70%)

Structure (SMILES): O=c1[nH]c(Nc2cccc(C(F)(F)F)c2)nc2nc[nH]c12 [m-CF3PG, N^2-(m-trifluoromethylphenyl)guanine]
- number of ganglia producing virus compared to control ganglia [6]: significantly reduced
